Tests used:
[1] = molecular target: T1, AuroraB (Homo sapiens, UniProt Q96GD4); assay: AuroraB Homogeneous Time Resolved Fluorescent (HTRF) kinase assay; assay type: biochemical; settings: average; read-out: AurB_IC50_IP (uM Avg)
T1 construct: 20 μL of AuroraB FL H is for a final volume of 41 μL; His
Outline: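 Read-out is time-resolved FRET between europium anti-phospho-H3 antibody and streptavidin-APC, added in EDTA buffer to stop the reaction and equilibrated about 60 min (ex 320, em 615 and 655 nm). Preceding reaction: ~90 min, full-length enzyme, ATP, 0.1 μM biotin-Histone H3 substrate, Mg/Mn HEPES buffer pH 7.5.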

[2] = molecular target: T2, AuroraA-TPX2 (Homo sapiens, UniProt O14965); assay: AuroraA-TPX2 Homogeneous Time Resolved Fluorescent (HTRF) kinase assay; assay type: biochemical; settings: average; read-out: AurA_IC50_IP (uM Avg)
T2 construct: 20 μL of AuroraA-TPX2 KD GST for a final volume of about 41 μL; GST
T2 sequence (O14965 133-383 limits assumed): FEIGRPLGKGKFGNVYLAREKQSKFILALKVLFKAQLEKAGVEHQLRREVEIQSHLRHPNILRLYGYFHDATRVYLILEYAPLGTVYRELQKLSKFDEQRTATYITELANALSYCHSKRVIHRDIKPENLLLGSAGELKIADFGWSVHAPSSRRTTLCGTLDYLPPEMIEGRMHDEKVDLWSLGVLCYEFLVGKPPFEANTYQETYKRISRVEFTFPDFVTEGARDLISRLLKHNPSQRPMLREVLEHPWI
T2 sequence (Q9ULW0 1-43 partner limits assumed): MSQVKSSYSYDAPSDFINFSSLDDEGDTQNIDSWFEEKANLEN
Outline: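 HTRF read-out (Eu 615 nm to APC 655 nm) of phosphorylated biotin-PLK, detected with 0.02 nM europium anti-phosphoPLK antibody and 0.0005 mg/mL SA-APC after overnight equilibration.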

T1 sequence (Q96GD4 whole entry): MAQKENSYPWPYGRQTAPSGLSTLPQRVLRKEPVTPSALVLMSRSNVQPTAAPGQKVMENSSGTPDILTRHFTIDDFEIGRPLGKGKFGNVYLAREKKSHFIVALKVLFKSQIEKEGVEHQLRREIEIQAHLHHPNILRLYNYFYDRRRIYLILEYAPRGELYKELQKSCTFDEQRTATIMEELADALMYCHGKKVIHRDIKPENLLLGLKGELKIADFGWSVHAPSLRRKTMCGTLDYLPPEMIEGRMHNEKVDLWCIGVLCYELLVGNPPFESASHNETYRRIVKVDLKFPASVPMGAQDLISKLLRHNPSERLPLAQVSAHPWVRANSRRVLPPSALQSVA

Row | IC50 [1] | IC50 [2] | SMILES
1 | 0.003 µM | 0.008 µM | N#Cc1cc2nccc(Sc3ccc(Nc4nnc(-c5ccc(Cl)cc5)c5ccccc45)cc3)c2s1 [compound 351, 7-(4-(4-(4-chlorophenyl)phthalazin-1-ylamino)phenylthio)thieno[3,2-b]pyridine-2-carbonitrile]
2 | 0.001 µM | 0.074 µM | c1ccc(-c2nnc(Nc3ccc(Sc4ccnc5[nH]ncc45)cc3)c3ccccc23)cc1 [compound 352, N-(4-(1H-pyrazolo[3,4-b]pyridin-4-ylthio)phenyl)-4-phenylphthalazin-1-amine]
3 | 0.008 µM | 0.058 µM | COc1cc2nccc(Sc3ccc(Nc4nnc(-c5ccccc5)c5ccccc45)cc3)c2cn1 [compound 353, N-(4-(7-methoxy-1,6-naphthyridin-4-ylthio)phenyl)-4-phenylphthalazin-1-amine]
4 | 0.009 µM | 0.025 µM | COc1cc2nccc(Sc3ccc(Nc4nnc(-c5ccc(Cl)cc5)c5ccccc45)cc3)c2cn1 [compound 354, 4-(4-chlorophenyl)-N-(4-(7-methoxy-1,6-naphthyridin-4-ylthio)phenyl)phthalazin-1-amine]
5 | 0.006 µM | 0.241 µM | c1ccc(-c2nnc(Nc3ccc(Sc4ccnc5ccsc45)cc3)c3ccccc23)cc1 [compound 355, 4-phenyl-N-(4-(thieno[3,2-b]pyridin-7-ylthio)phenyl)phthalazin-1-amine]
6 | 0.012 µM | 0.036 µM | COc1cnc2c(Sc3ccc(Nc4nnc(-c5ccc(F)cc5)c5ccccc45)cc3)ccnc2c1 [compound 356, 4-(4-fluorophenyl)-N-(4-(7-methoxy-1,5-naphthyridin-4-ylthio)phenyl)phthalazin-1-amine]
7 | 0.012 µM | 0.029 µM | COc1ccc(-c2nnc(Nc3ccc(Sc4ccnc5cc(OC)cnc45)cc3)c3ccccc23)cc1 [compound 357, N-(4-(7-methoxy-1,5-naphthyridin-4-ylthio)phenyl)-4-(4-methoxyphenyl)phthalazin-1-amine]
8 | 0.006 µM | 0.049 µM | CCc1cc(-c2ccc(C)cc2)nnc1Nc1ccc(Sc2ccnc3cccnc23)cc1 [compound 358, N-(4-(1,5-naphthyridin-4-ylthio)phenyl)-4-ethyl-6-p-tolylpyridazin-3-amine]
9 | 0.017 µM | 0.012 µM | Clc1ccc(-c2nnc(Nc3ccc(Sc4ccnc5[nH]ncc45)cc3)c3ccccc23)cc1 [compound 359, N-(4-(1H-pyrazolo[3,4-b]pyridin-4-ylthio)phenyl)-4-(4-chlorophenyl)phthalazin-1-amine]
10 | 0.173 µM | 0.245 µM | CNC(=O)c1cc(Oc2ccc(Nc3nnc(-c4ccc(Cl)cc4)c4ccccc34)cc2)ccn1 [compound 361, 4-(4-(4-(4-chlorophenyl)phthalazin-1-ylamino)phenoxy)-N-methylpicolinamide]
11 | 0.092 µM | 0.066 µM | c1ccc(-c2nnc(Nc3ccc(Sc4ccnc5[nH]cnc45)cc3)c3ccccc23)cc1 [compound 362, N-(4-(3H-imidazo[4,5-b]pyridin-7-ylthio)phenyl)-4-phenylphthalazin-1-amine]
12 | 0.036 µM | 0.019 µM | Clc1ccc(-c2nnc(Nc3ccc(Sc4ccnc5[nH]cnc45)cc3)c3ccccc23)cc1 [compound 363, N-(4-(3H-imidazo[4,5-b]pyridin-7-ylthio)phenyl)-4-(4-chlorophenyl)phthalazin-1-amine]
13 | 0.073 µM | 0.036 µM | COc1ccc2c(Sc3ccc(Nc4nnc(-c5ccc(Cl)cn5)c5ccccc45)cc3)ccnc2c1 [compound 364, 4-(5-chloropyridin-2-yl)-N-(4-(7-methoxyquinolin-4-ylthio)phenyl)phthalazin-1-amine]
14 | 0.011 µM | 0.016 µM | Clc1ccc(-c2nnc(Nc3ccc(Sc4ccnc5ccccc45)cc3)c3ccccc23)nc1 [compound 365, 4-(5-chloropyridin-2-yl)-N-(4-(quinolin-4-ylthio)phenyl)phthalazin-1-amine]
15 | 0.051 µM | 0.037 µM | Cc1csc(-c2nnc(Nc3ccc(Sc4ccnc5ccsc45)cc3)c3ccccc23)c1 [compound 366, 4-(4-methylthiophen-2-yl)-N-(4-(thieno[3,2-b]pyridin-7-ylthio)phenyl)phthalazin-1-amine]
16 | 0.057 µM | 0.028 µM | COc1cnc2c(Oc3ccc(Nc4nnc(-c5ccccc5)c5c4CCC5)cc3)ccnc2c1 [compound 367, N-(4-(7-methoxy-1,5-naphthyridin-4-yloxy)phenyl)-4-phenyl-6,7-dihydro-5H-cyclopenta[d]pyridazin-1-amine]

Row | IC50 [1] | IC50 [2] | SMILES
17 | 0.063 µM | 0.04 µM | COc1ccc2c(Oc3ccc(Nc4nnc(-c5ccccc5)c5c4CCC5)cc3)ccnc2c1 [compound 368, N-(4-(7-methoxyquinolin-4-yloxy)phenyl)-4-phenyl-6,7-dihydro-5H-cyclopenta[d]pyridazin-1-amine]
18 | 0.594 µM | 0.505 µM | c1ccc(-c2nnc(Nc3ccc(Oc4ccnc5ccnn45)cc3)c3ccccc23)cc1 [compound 370, 4-phenyl-N-(4-(pyrazolo[1,5-a]pyrimidin-7-yloxy)phenyl)phthalazin-1-amine]
19 | > 25 µM | > 25 µM | COc1cnc2c(Oc3ccc(Nc4nnc(-c5ccc(Cl)cc5)c5c4CCC5)cc3)ccnc2c1 [compound 411]
20 | > 25 µM | > 25 µM | COc1ccc2c(Oc3ccc(Nc4nnc(-c5ccc(Cl)cc5)c5c4CCC5)cc3)ccnc2c1 [compound 412]
21 | 0.031 µM | 0.09 µM | COc1cnc2c(Sc3ccc(Nc4nnc(-c5ccccc5)c5ccccc45)cn3)ccnc2c1 [compound 413]
22 | 0.012 µM | 0.043 µM | Oc1cnc2c(Sc3ccc(Nc4nnc(-c5ccccc5)c5ccccc45)cc3)ccnc2c1 [compound 415]
23 | 0.003 µM | 0.098 µM | Cc1ccc(-c2nnc(Nc3ccc(Oc4ccnc5cccnc45)cc3)c3ccccc23)cc1N [compound 416]
24 | 0.002 µM | 0.009 µM | c1ccc(-c2nnc(Nc3ccc(Oc4ccnc5cc(-c6cn[nH]c6)ccc45)cc3)c3ccccc23)cc1 [compound 417]
25 | 0.012 µM | 0.028 µM | COc1cc2ncnc(Sc3ccc(Nc4nnc(-c5ccc(Cl)cc5)c5ccccc45)cc3)c2cc1OC [compound 418]
26 | 0.026 µM | 0.309 µM | COc1ccc2nccc(Sc3ccc(Nc4nnc(-c5cccc(C)n5)c5ccccc45)cc3)c2n1 [compound 419]
27 | 0.015 µM | 0.072 µM | COc1cnc2c(Sc3ccc(Nc4nnc(-c5cccc(C)n5)c5ccccc45)cc3)ccnc2c1 [compound 420]
28 | 0.008 µM | 0.142 µM | Cc1cccc(-c2nnc(Nc3ccc(Sc4ccnc5cccnc45)cc3)c3ccccc23)n1 [compound 421]
29 | 0.013 µM | 0.029 µM | COc1cc2c(Oc3ccc(Nc4nnc(-c5ccccc5)c5ccccc45)cc3)ccnc2cc1O [compound 422]
30 | 0.003 µM | 0.047 µM | Clc1ccc(-c2nnc(Nc3ccc(Oc4ccnc5ccncc45)cc3)c3ccccc23)cc1 [compound 423]
31 | 0.004 µM | 0.055 µM | c1ccc2c(-c3ccc4c(c3)OCO4)nnc(Nc3ccc(Oc4ccnc5ccncc45)cc3)c2c1 [compound 424]
32 | 0.003 µM | 0.171 µM | c1ccc(-c2nnc(Nc3ccc(Sc4ccnc5ccncc45)cc3)c3ccccc23)cc1 [compound 425]

Source: patent publication US8557816B2, “Aurora kinase modulators and method of use” (Amgen Inc., priority 2007, dated 2013)
